Assay [1] is described as follows: Increase in apoptosis rate in neural stem cells co-cultured with vascular endothelial cells assessed as cell survival at 70 ug/mL after 10 hrs. The assay is classed as functional. To be noted: Mus musculus, read-out: Activity.
For assay [2], the system named is Endothelial cell. In words: Induction of apoptosis in neural stem cells co-cultured with vascular endothelial cells assessed as inhibition of cell differentiation at 70 ug/mL after 10 hrs. The assay is classed as functional, cell-based. The conditions noted are these: Mus musculus.
Assay [3] concerns Endothelial cell. The assay can be described thus: Induction of apoptosis in neural stem cells co-cultured with vascular endothelial cells assessed as neurites degeneration at 70 ug/mL after 10 hrs. The assay is classed as functional, cell-based. To be noted: Mus musculus.
Assay [4] concerns Neural stem cell. In words: Induction of apoptosis in neural stem cells assessed as cell viability at 10 to 100 ug/mL by MTT assay. To be noted: Mus musculus. In kind it is functional, cell-based. For orientation: Formazan colour is commonly taken as a measure of viable cells.
The subject of assay [5] is Endothelial cell. The assay can be described thus: Induction of necrosis in neural stem cells co-cultured with vascular endothelial cells assessed as LDH release at 70 ug/mL after 10 hrs relative to control. In kind it is functional, cell-based. To be noted: Mus musculus. Background: LDH in the medium is a marker of cell lysis.
For assay [6], the system named is Endothelial cell. The assay can be described thus: Induction of apoptosis in neural stem cells co-cultured with vascular endothelial cells assessed as DNA fragmentation at 70 ug/mL after 10 hrs. In kind it is functional, cell-based. The conditions noted are these: Mus musculus.
Assay [7] concerns Endothelial cell. In words: Induction of apoptosis in neural stem cells co-cultured with vascular endothelial cells assessed as nuclear condensation at 70 ug/mL after 10 hrs. In kind it is functional, cell-based. The conditions noted are these: Mus musculus.

The values that follow come from ChEMBL document CHEMBL1139909, “Safrole oxide is a useful tool for investigating the effect of apoptosis in vascular endothelial cells on neural stem cell survival and differentiation in vitro” (2007).

The source made the active and inactive calls. No cut-off for these calls is given here.

Regarding `c1cc2c(cc1CC1CO1)OCO2` (configuration not stated), in assay [1], the viability at 70 µg/mL was found to be 92%. The result in assay [2], in assay [3], in assay [6] and in assay [7] was Active. Besides, the result in assay [4] and in assay [5] was inactive.
